Measured values: PMC12734371, “Synthesis, Anti-Tumour, and Antibacterial Activities of Monocarbonyl Curcumin Analogues of Piperidones” (International Journal of Molecular Sciences, 2025)

What was measured:
A549 cells [1] = test: Cell morphology by inverted microscope; format: cell-based, human; settings: 5 μmol/L, 24 h
Description: The cells were inoculated in a 6-well plate, and about 1 × 10^6 A549 cells in the logarithmic growth phase were inoculated in each well. After the cells were cultured in a constant temperature incubator for 24 h, the old medium was discarded, and five kinds of piperidone monocarbonyl curcumin analogue solution (5, 10, and 20 μmol/L), curcumin (10, 20, and 40 μmol/L), and 0.9% DMSO were added as the blank control group for 24 h, and then the cell morphology was observed by inverted microscope (200×).

A549 cells [2] = test: Cell wound scratch assay (migration); format: cell-based, human; settings: 6 h; high, medium, and low concentrations
Description: A549 cells in logarithmic phase were digested with 0.25% trypsin and blown to single cell suspension with a dropper. The cell density was adjusted to 5 × 10^5 cells/mL. The cells were inoculated on 6-well plates, 2 mL per well, and cultured in a cell incubator at 37 °C, 5% CO2, and saturated humidity for 24 h until the gaps were basically fused. A 10 μL micro pipette tip was used to scratch vertically in a 6-well plate. After washing with PBS solution 3 times, the drug-containing medium was added, 2 mL per well, and three wells were set in each group. The culture plates were placed in a 5% CO2 incubator at 37 °C for 6 h and 24 h and observed and photographed with an inverted fluorescence microscope. The images were obtained by NIS Elements Viewer 4.2.0, and the scratch area and width were calculated. The cell migration rate was calculated by Formula (2):[Cell migration rate (%) = (0 h scratch area − scratch area at different times)/0 h scratch area × 100%](2)

A549 cells [3] = test: Flow cytometry apoptosis (Annexin V/PI); format: cell-based, human; settings: 24 h; 5, 2.5, 1.25 μmol/L
Description: The A549 cells in logarithmic growth phase were inoculated in 6-well plates at 1 × 10^6 cells. After resting in the incubator for 24 h, the cells were treated with different concentrations of drugs. The blank control group was added with the medium with the highest concentration of DMSO. After 24 h of culture, cells were collected, washed with PBS, transferred to a flow tube, and resuspended with 100 μL of 1 × Annexin V conjugate. Add 4 μL YF4/88-Annexin N and 5 μL PI working solution. The cells were incubated in the dark at room temperature for 10 min, transferred to a flow cytometer tube, added with 200 μL of 1 × Annexin V conjugate, and immediately detected by flow cytometry.

[4] = test system: ERK (extracellular regulated protein kinases); test: Western blot, ERK level in A549 cells; format: cell-based, human; settings: 10, 5, 2.5 μmol/L, 24 h
Description: (§1) A549 cells in logarithmic growth phase were seeded in 6-well plates at 1 × 10^6 cells/mL per well. The cells were cultured overnight in an incubator. Different concentrations of drug-containing medium of 2,5-2Cl, 2Br-5Cl, 2-Cl, 2-F, benzaldehyde ([…]), curcumin (20 μmol/L), and cisplatin (30 μmol/L) were added, and the blank control […] The RIPA cell lysis buffer containing protease inhibitors was added to the Petri dish to collect the proteins of each experimental group, and the supernatant was collected as a protein sample after ultrasonic centrifugation. Protein quantification was performed by the BCA method. A total of 20 μg protein was separated by 10% SDS-PAGE, and then the protein was transferred to a PVDF membrane. The membrane was blocked with 5% skim milk for 1 h, and the corresponding primary antibody was incubated at 4 °C overnight. After washing the membrane three times with TBST, the bands were incubated with the corresponding secondary antibodies at room temperature for 1 h. After cleaning the membrane with TBST 3 times, the darkroom was developed with ECL luminescence. Using GAPDH as an internal reference, the protein bands were analyzed by ImageJ 1.8.0.

AKT (protein kinase B) = test: Western blot, AKT level in A549 cells; format: cell-based, human; settings: 10, 5, 2.5 μmol/L, 24 h
Description: as §1

L02 cells = test: MTT assay, toxicity to human normal liver cells; format: cell-based; settings: 24 h, mean ± s, n = 3
Description: The cells were passaged to the fourth generation of L02 cells, and the cell suspension containing about 5 × 10^3 cells was added to each well of the 96-well plate and cultured in a cell culture incubator for 24 h. The old medium was discarded, and different concentrations of liquid medicine (6 porous and 3 plates for each concentration) were added and incubated for 24 h. The old medium was discarded, 10% of 5 mg/mL MTT working solution was added in the dark, and the cells were incubated in a cell incubator for 4 h. The old medium was discarded, 100 μL DMSO was added to each well, and 100 RPM was oscillated on an air shaker for 10 min. The OD value was measured at 490 nm with a multifunctional microplate reader. According to the OD value, the inhibition rate of different piperidone monocarbonyl curcumin analogues on L02 cells was calculated according to Formula (1), and IC50 was calculated by Graph Pad Prism 8.0.

Hela cells = test: MTT assay, inhibition of tumour cell growth; format: cell-based, human; settings: 24 h, mean ± s, n = 3
Description: (§2) The tumour cell suspension in logarithmic growth phase, containing about 5 × 10^3 cells, was taken and seeded onto a 96-well plate and gently shaken to disperse the cells evenly at the bottom of the plate. The cells were incubated in a constant temperature (37 °C) incubator for 24 h. The old medium was discarded, and 100 μL of the prepared working solution of piperidinone monocarbonyl curcumin analogues at different concentrations was added, and the cells were incubated in a constant temperature incubator for 24 h. Blank medium wells, blank cell wells, and 0.9% DMSO (highest content) wells were set up, with 6 multi-well and 3 multi-plates for each concentration. The discarded old medium was absorbed, and 100 μL of 10% 5 mg/mL MTT working solution was added to each well (operated away from light) and placed in a cell incubator for further incubation for 4 h. The old medium was discarded, and 100 μL of DMSO was added to each well and shaken in an air shaker at 100 RPM for 10 min. The absorbance of the OD value was measured at 490 nm by a multifunctional microplate analyzer. According to Formula (1), the inhibition rates of different piperidones monocarbonyl curcumin analograms on 4 tumour cells were calculated, and IC50 was calculated by GraphPad Prism 8.0:Inhibition rate (%) = (OD blank cell group − OD administration group)/OD blank cell group(1)

A549 cells [5] = test: MTT assay, inhibition of tumour cell growth; format: cell-based, human; settings: 24 h, mean ± s
Description: as §2

MCF-7 cells = test: MTT assay, inhibition of tumour cell growth; format: cell-based, human; settings: 24 h, mean ± s, n = 3
Description: as §2

HepG2 cells = test: MTT assay, inhibition of tumour cell growth; format: cell-based, human; settings: 24 h, mean ± s, n = 3
Description: as §2

A549 cells [6] = test: CCK-8 growth inhibition (dose and time action curves); format: cell-based, human; settings: different concentrations, 4-72 h
Description: A549 cells in the logarithmic growth phase and in a good growth state were collected. After routine digestion and centrifugation, the cells were diluted with DMEM low-glucose complete medium, suspended in a single cell state, and inoculated in 96-well plates. Each well was inoculated with 100 μL cell suspension containing 5 × 10^3 cells. The 96-well plate was shaken to disperse the cells evenly at the bottom of the cell orifice plate, and the cells were cultured in the cell incubator for 24 h. The old medium was discarded, complete medium containing different concentrations of liquid medicine was added, and the culture continued in the cell culture incubator. At 4, 6, 12, 24, 48, and 72 h, the old medium was discarded and 100 μL of medium containing 10% CCK-8 was added. The medium was placed in the cell incubator and continued to incubate for 2 h. The OD value was measured at 450 nm with an enzyme calibration and the inhibition rate of different compounds at different concentrations was calculated. GraphPad Prism 8.0 was used to plot the inhibition rate of cell growth at different concentrations of the five major compounds. The drug duration curves were plotted with time as the X-axis and inhibition rate as the Y-axis.

Row | Molecule | Cell morphology (A549 cells [1]) | Cell migration rate vs blank control (0.9% DMSO) (A549 cells [2]) | Apoptosis-inducing effect on A549 cells (A549 cells [3]) | ERK protein level vs control group [4] | Expression level of AKT protein vs control group (AKT (protein kinase B)) | IC50 (L02 cells) [µM] | IC50 (Hela cells) [µM] | IC50 (A549 cells [5]; n = 3) [µM] | IC50 (MCF-7 cells) [µM] | IC50 (HepG2 cells) [µM] | Inhibition of A549 cell growth (CCK-8) (A549 cells [6]) | IC50 (A549 cells [5]; n = 3, listed as benzaldehyde) [µM]
1 | O=C1C(=Cc2cc(Cl)ccc2Cl)CNCC1=Cc1cc(Cl)ccc1Cl [2,5-2Cl] | most of the cells became round and loose | no statistical difference | strongest | significantly lower | most obvious | 48.6 ± 3.59 | 6.62 ± 2.1 | 2.87 ± 2.09 | 4.72 ± 1.48 | 9.66 ± 1.09 |  | 
2 | 3,5-Dibenzylidene-4-piperidone [Benzaldehyde] |  | no statistical difference |  |  |  | 52.4 ± 1.89 | 12.4 ± 2.91 | 4.66 ± 2.39 | 5.88 ± 1.44 | 10.3 ± 1.88 | weak at low concentrations | < 5
